Assay results from patent publication US9284303B2, “Benzimidazole cannabinoid agonists bearing a substituted heterocyclic group” (priority 2006, dated 2016).

Assays:
[1] = molecular target: T1, human CB2 (hCB2) receptor (Homo sapiens, UniProt P34972); experiment: Inhibition of forskolin-activated cAMP production upon activation of hCB2 (HTRF), CHO-K1 cells; format: cell-based; conditions: for ratio CB2 agonism over CB1 agonism: Table C-1, selectivity hCB2 over hCB1; for EC50: read-out: CB2 pEC50 (converted); for ratio CB2 over CB1 agonism: Table C-3, comparison of art compounds A to E with compounds of the invention
T1 construct: expressed in transfected cells; host or cells: CHO-K1

[2] = molecular target: T2, human CB1 (hCB1) receptor (Homo sapiens, UniProt P21554); experiment: Inhibition of forskolin-activated cAMP production upon activation of hCB1 (HTRF), CHO-K1 cells; format: cell-based; conditions: forskolin-activated cAMP, pEC50=-log(EC50); for EC50: CB1 pEC50, hCB1-CHO-K1 cells; for CB1 pEC50: hCB1-CHO-K1 cells
T2 construct: expressed in transfected cells; host or cells: CHO-K1
Procedure, shortened: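 CHO-K1 cells stably expressing hCB1 (20,000/well) were in HBSS stimulation buffer (1 mM IBMX, 10 mM MgCl2, 0.1% BSA, pH 7.4), with 6 μM forskolin in the compound buffer, 30 min at room temperature in the dark. cAMP was read as HTRF 665/620 ratio, normalized to DMSO and CP55490. Outputs were pEC50 and inhibition at 10 μM relative to CP55490.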

[3] = hCB2-CHO-K1 cells, forskolin-activated cAMP, pEC50=-log(EC50)

T1 sequence (P34972 whole entry): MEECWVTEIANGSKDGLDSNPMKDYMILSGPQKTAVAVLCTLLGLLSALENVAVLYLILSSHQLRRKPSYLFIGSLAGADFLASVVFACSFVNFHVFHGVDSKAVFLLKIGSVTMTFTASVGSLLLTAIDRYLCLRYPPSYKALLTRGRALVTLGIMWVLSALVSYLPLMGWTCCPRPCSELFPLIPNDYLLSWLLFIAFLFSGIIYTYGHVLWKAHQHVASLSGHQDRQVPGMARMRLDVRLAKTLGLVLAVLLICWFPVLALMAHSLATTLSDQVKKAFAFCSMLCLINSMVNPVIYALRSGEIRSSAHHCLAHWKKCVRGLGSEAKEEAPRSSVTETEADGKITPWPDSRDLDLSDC
T2 sequence (P21554 whole entry): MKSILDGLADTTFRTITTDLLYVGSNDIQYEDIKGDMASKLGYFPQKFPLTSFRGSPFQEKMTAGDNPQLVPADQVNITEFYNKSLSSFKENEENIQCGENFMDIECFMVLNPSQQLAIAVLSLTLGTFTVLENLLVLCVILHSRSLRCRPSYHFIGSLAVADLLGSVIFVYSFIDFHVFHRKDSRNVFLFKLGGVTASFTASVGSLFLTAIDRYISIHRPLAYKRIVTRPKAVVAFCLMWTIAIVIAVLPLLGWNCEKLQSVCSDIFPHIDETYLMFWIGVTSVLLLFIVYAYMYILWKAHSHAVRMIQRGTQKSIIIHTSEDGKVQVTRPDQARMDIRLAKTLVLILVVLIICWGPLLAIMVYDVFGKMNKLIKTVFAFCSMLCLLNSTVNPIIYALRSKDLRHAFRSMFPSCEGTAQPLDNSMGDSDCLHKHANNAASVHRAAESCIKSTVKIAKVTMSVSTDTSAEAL

SMILES | ratio CB2 agonism over CB1 agonism [1] | EC50 [1, 3] [nM] | melting point [°C] | EC50 [2] [nM] | ratio CB2 agonism over CB1 agonism ([1]; listed as 52) | ratio CB2 over CB1 agonism [1] | CB1 pEC50 [2] | CB2 pEC50 [1, 3]
CC(C)(C)c1nc2cc(S(=O)(=O)c3ccnc(F)c3)ccc2n1CCN1CCCC1 [Co. No. 144] | >3090 | 3.24 | 115.5 | > 10000 | – | – | – | –
COc1ccc(S(=O)(=O)c2ccc3c(c2)nc(C(C)(C)C)n3CC2CCOCC2)cn1 [Co. No. 52] | – | 0.692 | 198 | 229 | 331 | – | – | –
CC(C)(C)c1nc2cc(S(=O)(=O)c3ccnc(F)c3)ccc2n1CC1CCS(=O)(=O)CC1 [Co. No. 133] | >2512 | 3.98 | 220.8 | > 10000 | – | – | – | –
CCNS(=O)(=O)c1ccc(S(=O)(=O)c2ccc3c(c2)nc(C(C)(C)C)n3CC2CCOCC2)s1 [Co. No. 59] | 2018 | 1.12 | 158 | 2290 | – | – | – | –
CC(C)(C)c1nc2cc(S(=O)(=O)c3cncc(C(N)=O)c3)ccc2n1CC1CCOCC1 [Co. No. 44] | 64 | 2 | 259 | 126 | – | – | – | –
CC(C)(C)c1nc2cc(S(=O)(=O)c3ccc(=O)[nH]n3)ccc2n1CC1CCOCC1 [Co. No. 94] | 1059 | 2.51 | 218.3 | 2690 | – | – | – | –
CC(C)(C)c1nc2cc(S(=O)(=O)c3ccc(C#N)o3)ccc2n1CC1CCOCC1 [Co. No. 60] | 638 | 1.05 | 145.5 to 145.7 | 661 | – | – | – | –
CC(C)(C)c1nc2cc(S(=O)(=O)c3ccc(C(N)=O)o3)ccc2n1CC1CCOCC1 [Co. No. 12] | 302 | 1.55 | 234.8 | 468 | – | 302 | – | –
CC(C)(C)c1nc2cc(S(=O)(=O)c3ccnc(O)c3)ccc2n1CC1CCOCC1 [Co. No. 8] | 1514 | 3.09 | > 300 | 4680 | – | 1514 | – | –
CC(C)(C)c1nc2cc(S(=O)(=O)c3coc(C4OCCO4)c3)ccc2n1CC1CCOCC1 [Co. No. 55] | 363 | 2.29 | 141 | 832 | – | – | – | –
COc1ccc(S(=O)(=O)c2ccc3c(c2)nc(C(C)(C)C#N)n3CC2CCOCC2)nn1 [Co. No. 92] | 437 | 6.92 | 161.1 | 2950 | – | – | – | –
CC(C)(C)c1nc2cc([S+]([O-])c3ccncc3Br)ccc2n1CC1CCOCC1 (stereo not drawn) [Co. No. 88] | 537 | 2.34 | 184.7 | 1260 | – | – | – | –
CC(C)(C)c1nc2cc([S+]([O-])c3c(Cl)cncc3Cl)ccc2n1CC1CCOCC1 (stereo not drawn) [Co. No. 85] | 891 | 0.933 | 192.9 | 832 | – | – | – | –
COCCCc1cc(S(=O)(=O)c2ccc3c(c2)nc(C(C)(C)C)n3CC2CCOCC2)ccn1 [Co. No. 154] | >9016 | 1.12 | 143.4 | > 10000 | – | – | – | –
CC(C)(C)c1nc2cc(S(=O)(=O)c3ccc(S(=O)(=O)N4CCOCC4)s3)ccc2n1CC1CCOCC1 [Co. No. 7] | >5495 | 1.82 | 198 | > 10000 | – | – | – | –
CC(C)(C)c1nc2cc(S(=O)(=O)c3cc[n+]([O-])cc3)ccc2n1CC1CCOCC1 [Co. No. 3] | – | 1.74 | 203 | 692 | – | – | – | –
COCCOc1cc(S(=O)(=O)c2ccc3c(c2)nc(C(C)(C)C)n3CC2CCOCC2)ccn1 [Co. No. 150] | 638 | 1.26 | 142.9 | – | – | – | 6.09 | –
CC1(C)CC(Cn2c(C(C)(C)C)nc3cc(S(=O)(=O)c4ccnc(F)c4)ccc32)CCO1 (stereo not drawn) [Co. No. 149] | >8035 | 1.26 | 159.4 | > 10000 | – | – | – | –
CC(C)(C)c1nc2cc(S(=O)(=O)c3c(Cl)cncc3Cl)ccc2n1CC1CCOCC1 [Co. No. 84] | 490 | 1.26 | 242.9 | 617 | – | – | – | –
CC(C)(C)c1nc2cc(S(=O)(=O)c3ncccc3C#N)ccc2n1CC1CCOCC1 [Co. No. 104] | 117 | 0.741 | 100 to 105 | 87.1 | – | – | – | –

SMILES | ratio CB2 agonism over CB1 agonism [1] | EC50 [1, 3] [nM] | melting point [°C] | EC50 [2] [nM] | ratio CB2 agonism over CB1 agonism ([1]; listed as 52) | ratio CB2 over CB1 agonism [1] | CB1 pEC50 [2] | CB2 pEC50 [1, 3]
Cc1oc(S(=O)(=O)c2ccc3c(c2)nc(C(C)(C)C)n3CC2CCOCC2)cc1S(C)(=O)=O [Co. No. 68] | 116 | 3.09 | 204 to 205 | 363 | – | – | – | –
CC(C)(C)c1nc2cc(S(=O)(=O)c3ccc(C(=O)N4CCOCC4)s3)ccc2n1CC1CCOCC1 [Co. No. 79] | 543 | 2.95 | 184.6 | 1580 | – | – | – | –
CC(C)(C)Cc1nc2cc(S(=O)(=O)c3cc[n+]([O-])cc3)ccc2n1CC1CCOCC1 [Co. No. 103] | – | 7.08 | 259.7 | 2090 | – | – | – | –
CC(C)(C)c1nc2cc(S(=O)(=O)c3ccn(/C(F)=C/I)c(=O)c3)ccc2n1CC1CCOCC1 [Co. No. 90] | >3715 | 2.69 | 113.9 | > 10000 | – | – | – | –
Cn1cc(S(=O)(=O)c2ccc3c(c2)nc(C(C)(C)C)n3CC2CCN(C=O)CC2)cn1 [Co. No. 156] | 617 | 4.07 | 213.9 | 2510 | – | – | – | –
Cn1nc(S(=O)(=O)c2ccc3c(c2)nc(C(C)(C)C)n3CC2CCOCC2)ccc1=O [Co. No. 100] | 631 | 1.58 | 224.3 | 1000 | – | – | – | –
CC(C)(C)c1nc2cc(S(=O)(=O)c3ccnc(F)c3)ccc2n1CCC1CCOCC1 [Co. No. 128] | >4786 | 2.09 | 177.8 | > 10000 | – | – | – | –
COCCCOc1cc(S(=O)(=O)c2ccc3c(c2)nc(C(C)(C)C)n3CC2CCOCC2)ccn1 [Co. No. 151] | 8035 | 0.479 | 106.5 | – | – | – | 5.41 | –
Cc1cc(S(=O)(=O)c2ccc3c(c2)nc(CC(C)(C)C)n3CC2CCOCC2)ccn1 [Co. No. 24] | 407 | 2.19 | 207.1 | 891 | – | 407 | – | –
COCCCNc1cc(S(=O)(=O)c2ccc3c(c2)nc(C(C)(C)C)n3CC2CCOCC2)ccn1 [Co. No. 126] | 1129 | 0.851 | 148.3 | – | – | – | 6.02 | –
CC(C)(C)c1nc2cc(S(=O)(=O)c3ccc(C(C)(C)O)s3)ccc2n1CC1CCOCC1 [Co. No. 53] | 607 | 3.72 | 258 | 2240 | – | – | – | –
CC(=O)N1CCC(Cn2c(C(C)(C)C)nc3cc(S(=O)(=O)c4ccc(C#N)s4)ccc32)CC1 [Co. No. 159] | >4677 | 2.14 | 181.2 | > 10000 | – | – | – | –
CC(=O)NCCNc1cc(S(=O)(=O)c2ccc3c(c2)nc(C(C)(C)C)n3CC2CCOCC2)ccn1 [Co. No. 123] | >2399 | 4.17 | 217.2 | > 10000 | – | – | – | –
CC(C)(C)c1nc2cc(S(=O)(=O)c3ccc(C#N)nc3)ccc2n1CC1CCOCC1 [Co. No. 51] | 73 | 1.23 | 228 | 89.1 | – | – | – | –
CC(C)(C)c1nc2cc(S(=O)(=O)c3cc(C(F)(F)F)ccn3)ccc2n1CC1CCOCC1 [Co. No. 105] | 295 | 1.58 | 139.5 to 141 | 479 | – | – | – | –
CC(C)(C)c1nc2cc(S(=O)(=O)c3cc(Cl)cc(Cl)n3)ccc2n1CC1CCOCC1 [Co. No. 10] | 12883 | 0.741 | 137.43 | 9550 | – | 12883 | – | –
CC(=O)NCCc1cc(S(=O)(=O)c2ccc3c(c2)nc(C(C)(C)C)n3CC2CCOCC2)ccn1 [Co. No. 158] | 5888 | – | 160.3 | – | – | – | 5.08 | 8.85
CC(C)(C)c1nc2cc(S(=O)(=O)c3ccc(S(C)(=O)=O)nc3)ccc2n1CC1CCOCC1 [Co. No. 56] | >3802 | 2.63 | 150 to 160 | > 10000 | – | – | – | –
CC(C)(C)c1nc2cc(S(=O)(=O)c3cc(O)ncc3F)ccc2n1CC1CCOCC1 [Co. No. 82] | 407 | 3.89 | 291.8 to 294.6 | 1580 | – | – | – | –
CC(C)(C)c1nc2cc(S(=O)(=O)c3ccc(S(C)(=O)=O)cn3)ccc2n1CC1CCOCC1 [Co. No. 67] | >2344 | 4.27 | 183 | > 10000 | – | – | – | –
